Measured values: ChEMBL document CHEMBL6096630, “Enhancing therapeutic efficacy in homologous recombination-proficient pancreatic cancer via the combination of PARP1-PROTAC and a BRD4 inhibitor” (Bioorg Med Chem, 2024)
The source made the active and inactive calls. The calls are words filed in the database; no cut-off is given here.

Legend:
[1] = tested on: PANC-1; test: Synergistic inhibition of colony formation in human PANC-1 cells at 2 uM incubated for 14 days in presence of JQ1 by crystal violet staining based analysis; type: functional, cell-based; conditions: time 14.0 day
[2] = tested on: PANC-1; test: Anti-invasive activity in human PANC-1 cells at 2 uM in presence of JQ1 incubated for 48 hrs by Matrigel assay relative to control; type: functional
[3] = tested on: PANC-1; test: Anti-invasive activity in human PANC-1 cells assessed as increase in invasion inhibition at 2 uM in presence of JQ1 incubated for 48 hrs by Matrigel assay relative to combination of OL/JQ1; type: functional; parameters: scale not given: the % may be the effect or the level left
[4] = target: Protein cereblon/Poly [ADP-ribose] polymerase 1 (Homo sapiens, UniProt P09874+Q96SW2); test: PROTAC activity at CRBN/PARP1 in human BXPC-3 cells assessed as induction of PARP1 degradation incubated for 24 hrs by Western blot analysis; type: cell-based
[5] = tested on: PANC-1; test: Induction of cell cycle arrest in human PANC-1 cells assessed as accumulation at G2/M phase at 2 uM incubated for 24 hrs in presence of JQ1 by PI staining based flow cytometry relative to control; type: functional
[6] = tested on: PANC-1; test: Induction of cell cycle arrest in human PANC-1 cells assessed as decrease in CDK4 level at 2 uM incubated for 24 hrs in presence of JQ1 by […]; type: functional
[7] = tested on: PANC-1; test: Induction of apoptosis in human PANC-1 cells assessed as decrease in Bcl-2 level at 2 uM incubated for 48 hrs in presence of JQ1 by Western blot analysis; type: functional, cell-based
[8] = tested on: PANC-1; test: Inhibition of colony formation in human PANC-1 cells at 1 uM incubated for 14 days by crystal violet staining based analysis; type: functional, cell-based; conditions: time 14.0 day
[9] = tested on: PANC-1; test: Induction of DNA damage in human PANC-1 cells assessed as decrease in RAD51 level at 1 uM in presence of OL by Western blot analysis; type: functional, cell-based
[10] = tested on: PANC-1; test: Induction of cell cycle arrest in human PANC-1 cells assessed as accumulation at G1 phase at 0.25 uM incubated for 24 hrs by PI staining based flow cytometry (reference value: 51.70 %); type: functional
[11] = tested on: PANC-1; test: Induction of cell cycle arrest in human PANC-1 cells assessed as accumulation at S phase at 1 uM incubated for 24 hrs by PI staining based flow cytometry (reference value: 38.94 %); type: functional
[12] = tested on: PANC-1; test: Induction of cell cycle arrest in human PANC-1 cells assessed as accumulation at G2 phase at 1 uM incubated for 24 hrs in presence of OL by PI staining based flow cytometry (reference value: 9.36 %); type: functional
[13] = tested on: PANC-1; test: Induction of cell cycle arrest in human PANC-1 cells assessed as accumulation at S phase at 0.12 uM incubated for 24 hrs by PI staining based flow cytometry (reference value: 38.94 %); type: functional
[14] = tested on: PANC-1; test: Induction of cell cycle arrest in human PANC-1 cells assessed as accumulation at G2 phase at 0.12 uM incubated for 24 hrs by PI staining based flow cytometry (reference value: 9.36 %); type: functional
[15] = tested on: PANC-1; test: Induction of cell cycle arrest in human PANC-1 cells assessed as accumulation at G0/G1 phase at 1 uM incubated for 24 hrs in presence of OL by PI staining based flow cytometry relative to control; type: functional
[16] = tested on: PANC-1; test: Induction of apoptosis in human PANC-1 cells assessed as viable cells at 0.12 uM incubated for 48 hrs by Annexin V-FITC/PI staining based flow cytometry (reference value: 91.64 %); type: functional; conditions: read-out: Activity
[17] = tested on: PANC-1; test: Induction of apoptosis in human PANC-1 cells assessed as viable cells at 0.25 uM incubated for 48 hrs by Annexin V-FITC/PI staining based flow cytometry (reference value: 91.64 %); type: functional; conditions: read-out: Activity
[18] = tested on: PANC-1; test: Induction of apoptosis in human PANC-1 cells assessed as late apoptotic cells at 0.25 uM incubated for 48 hrs by Annexin V-FITC/PI staining based flow cytometry (reference value: 3.87 %); type: functional
[19] = tested on: PANC-1; test: Induction of apoptosis in human PANC-1 cells assessed as necrotic cells at 0.25 uM incubated for 48 hrs by Annexin V-FITC/PI staining based flow cytometry (reference value: 3.09 %); type: functional
[20] = tested on: PANC-1; test: Induction of apoptosis in human PANC-1 cells assessed as necrotic cells at 0.5 uM incubated for 48 hrs by Annexin V-FITC/PI staining based flow cytometry (reference value: 3.09 %); type: functional
[21] = tested on: PANC-1; test: Induction of apoptosis in human PANC-1 cells assessed as necrotic cells at 1 uM incubated for 48 hrs by Annexin V-FITC/PI staining based flow cytometry (reference value: 3.09 %); type: functional
[22] = tested on: PANC-1; test: Induction of apoptosis in human PANC-1 cells assessed as early apoptotic cells at 1 uM incubated for 48 hrs in presence of OL by Annexin V-FITC/PI staining based flow cytometry (reference value: 1.41 %); type: functional
[23] = tested on: PANC-1; test: Antitumor activity against human PANC-1 cells xenografted in BALB/c mouse assessed as reduction in tumor growth at 20 mg/kg, ip for 4 weeks administered for 5 days consecutively and 2 days without treatment on every week in presence of OL; type: functional, organism-based
[24] = Toxicity in BALB/c mouse xenografted with human PANC-1 cells assessed as animal mortality at 20 mg/kg, ip for 4 weeks administered for 5 days consecutively and 2 days without treatment on every week; type: organism-based; conditions: in vivo, 672 h
[25] = Toxicity in BALB/c mouse xenografted with human PANC-1 cells assessed as animal mortality at 20 mg/kg, ip for 4 weeks administered for 5 days consecutively and 2 days without treatment on every week in presence of OL; type: organism-based; conditions: in vivo, 672 h
[26] = Toxicity in BALB/c mouse xenografted with human PANC-1 cells assessed as body weight loss at 20 mg/kg, ip for 4 weeks administered for 5 days consecutively and 2 days without treatment on every week in presence of OL; type: organism-based; conditions: in vivo, 672 h
[27] = Toxicity in BALB/c mouse xenografted with human PANC-1 cells assessed as pathological changes in liver at 20 mg/kg, ip for 4 weeks administered for 5 days consecutively and 2 days without treatment on every week by H and E staining based analysis; type: organism-based; conditions: in vivo, 672 h
[28] = Toxicity in BALB/c mouse xenografted with human PANC-1 cells assessed as pathological changes in kidney at 20 mg/kg, ip for 4 weeks administered for 5 days consecutively and 2 days without treatment on every week by H and E staining based analysis; type: organism-based; conditions: in vivo, 672 h
[29] = Toxicity in BALB/c mouse xenografted with human PANC-1 cells assessed as pathological changes in kidney at 20 mg/kg, ip for 4 weeks administered for 5 days consecutively and 2 days without treatment on every week in presence of OL by H and E staining based analysis; type: organism-based; conditions: in vivo, 672 h
[30] = Toxicity in BALB/c mouse xenografted with human PANC-1 cells assessed as drug tolerance at 20 mg/kg, ip for 4 weeks administered for 5 days consecutively and 2 days without treatment on every week in presence of OL; type: organism-based; conditions: in vivo, 672 h
[31] = tested on: PANC-1; test: Synergistic antiproliferative activity against human PANC-1 cells expressing wild-type BRCA assessed as combination index at 2:1 ratio of compound:JQ1 incubated for 5 days by CCK8 assay; type: functional; conditions: time 5 day
[32] = tested on: PANC-1; test: Induction of cell cycle arrest in human PANC-1 cells assessed as accumulation at G2/M phase at 2 uM incubated for 24 hrs in presence of JQ1 by PI staining based flow cytometry; type: functional

## O=C1CCC(N2C(=O)c3cccc(NC(=O)CNCCCCCCCCCCC(=O)N4CCN(C(=O)c5cc(Cc6n[nH]c(=O)c7ccccc67)ccc5F)CC4)c3C2=O)C(=O)N1 (stereo not drawn)
[1]
  inhibition: Active
[2]
  Activity: 12.4%
[3]
  Activity: ~11%
[4]
  DC50: 4.74 nM
[4]; dose <= 10.0 µM
  Activity: Dose-dependent-effect
[5]
  Activity: 8.3%
[6]
  Activity: Active
[7]
  Activity: Active

## Cc1sc2c(c1C)C(c1ccc(Cl)cc1)=N[C@@H](CC(=O)OC(C)(C)C)c1nnc(C)n1-2
[8]
  inhibition: Active
[9]
  Activity: Active
[10]
  Activity: 48.96%
[11]
  Activity: 26.24%
[12]
  Activity: 15.74%
[13]
  Activity: 40.51%
[14]
  Activity: 13.25%
[15]
  Activity: 12.43%
[16]
  viability at 0.12 µM: 90.2%
[17]
  viability at 0.25 µM: 89.4%
[18]
  Activity: 4.07%
[19]
  Activity: 2.48%
[20]
  Activity: 3.56%
[21]
  Activity: 4.54%
[22]
  Activity: 5.44%
[23]
  Activity: Active
[24]
  Activity: Non-toxic
[25]
  Activity: Non-toxic
[26]
  Activity: Toxic
[27]
  Activity: Non-toxic
[28]
  Activity: Non-toxic
[29]
  Activity: Non-toxic
[30]
  Activity: Non-toxic

## O=C(c1cc(Cc2n[nH]c(=O)c3ccccc23)ccc1F)N1CCN(C(=O)C2CC2)CC1 [OLAPARIB]
[31]
  CI: <1
[32]
  Activity: Active; Only A Slight Increase Observed
